Experimental data published in ChEMBL document CHEMBL4411318, “Discovery of a Series of 2'-α-Fluoro,2'-β-bromo-ribonucleosides and Their Phosphoramidate Prodrugs as Potent Pan-Genotypic Inhibitors of Hepatitis C Virus” (J Med Chem, 2019).
One block for each molecule: values may come before it.

Assays:
[1] = molecular target: DNA-directed RNA polymerase, mitochondrial (Homo sapiens, UniProt O00411); assay: Substrate activity at human POLRMT assessed as 5-radiolabled RNA/DNA incorporation levels at 100 uM after 2 hrs by PAGE analysis; type: ADME
DNA-directed RNA polymerase, mitochondrial, sequence (O00411 whole entry): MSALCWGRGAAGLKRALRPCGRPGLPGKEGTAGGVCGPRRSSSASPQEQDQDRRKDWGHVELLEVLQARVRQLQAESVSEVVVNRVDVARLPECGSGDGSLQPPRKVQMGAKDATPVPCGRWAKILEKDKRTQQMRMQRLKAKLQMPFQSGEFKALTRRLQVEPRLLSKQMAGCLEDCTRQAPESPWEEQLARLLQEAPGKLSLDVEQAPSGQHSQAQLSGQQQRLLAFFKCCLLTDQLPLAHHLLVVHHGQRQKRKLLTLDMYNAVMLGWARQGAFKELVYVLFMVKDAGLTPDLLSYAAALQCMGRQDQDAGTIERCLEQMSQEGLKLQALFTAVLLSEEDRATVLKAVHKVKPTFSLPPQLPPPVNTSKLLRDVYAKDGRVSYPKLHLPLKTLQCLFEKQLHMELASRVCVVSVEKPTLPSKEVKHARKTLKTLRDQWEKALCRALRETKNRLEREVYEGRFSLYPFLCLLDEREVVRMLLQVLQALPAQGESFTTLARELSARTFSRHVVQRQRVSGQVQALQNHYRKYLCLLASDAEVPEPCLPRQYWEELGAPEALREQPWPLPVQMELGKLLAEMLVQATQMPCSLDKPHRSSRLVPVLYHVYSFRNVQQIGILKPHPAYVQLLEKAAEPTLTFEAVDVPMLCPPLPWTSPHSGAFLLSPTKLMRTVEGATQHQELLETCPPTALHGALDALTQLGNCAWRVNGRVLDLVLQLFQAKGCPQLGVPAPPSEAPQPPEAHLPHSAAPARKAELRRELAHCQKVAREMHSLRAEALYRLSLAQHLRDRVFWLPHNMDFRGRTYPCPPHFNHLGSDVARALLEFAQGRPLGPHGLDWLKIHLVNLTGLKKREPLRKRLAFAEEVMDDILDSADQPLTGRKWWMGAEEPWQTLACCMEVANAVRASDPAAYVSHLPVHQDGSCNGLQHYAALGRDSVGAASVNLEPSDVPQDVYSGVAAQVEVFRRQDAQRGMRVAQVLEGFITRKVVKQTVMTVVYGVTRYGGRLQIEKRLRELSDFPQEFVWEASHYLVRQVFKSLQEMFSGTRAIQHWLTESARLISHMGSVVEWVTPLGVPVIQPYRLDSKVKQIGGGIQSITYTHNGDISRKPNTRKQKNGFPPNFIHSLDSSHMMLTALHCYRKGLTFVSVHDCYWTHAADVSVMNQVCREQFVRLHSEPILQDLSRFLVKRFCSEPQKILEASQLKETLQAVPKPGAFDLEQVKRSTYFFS

[2] = Cytotoxicity against human HuH7 cells assessed reduction in cell viability after 3 to 5 days by MTT assay; type: cell-based, Huh-7
[3] = Cytotoxicity against human PBMC assessed reduction in cell viability after 5 days by MTT assay; type: cell-based; conditions: PBMC
[4] = Cytotoxicity against human CCRF-CEM assessed reduction in cell viability after 4 days by MTT assay; type: cell-based; conditions: CCRF-CEM cells
[5] = Mitochondrial toxicity in human HepG2 cells assessed as reduction in cell viability after 14 days in presence of glucose supplemented media by ATP depletion assay; type: cell-based
[6] = Mitochondrial toxicity in human HepG2 cells assessed as reduction in cell viability after 3 days in presence of galactose supplemented media by ATP depletion assay; type: cell-based
[7] = Mitochondrial toxicity in human HepG2 cells assessed as reduction in cell viability after 3 days in presence of glucose supplemented media by ATP depletion assay; type: cell-based
HepG2 = assay: Mitochondrial toxicity in human HepG2 cells assessed as lactic acid production at 50 uM followed by medium plus drugs replenishment every 3 to 4 days for 14 days relative to control; type: cell-based; conditions: hepg2, 336 h
[8] = molecular target: RNA-directed RNA polymerase (Hepacivirus hominis) (UniProt O39930); assay: Inhibition of NS5B polymerase in HCV genotype 1b/4a chimeric replicon infected in human HuH7 replicon cells after 5 days by RT-PCR analysis; type: cell-based
RNA-directed RNA polymerase (Hepacivirus hominis), sequence (O39930 1-591): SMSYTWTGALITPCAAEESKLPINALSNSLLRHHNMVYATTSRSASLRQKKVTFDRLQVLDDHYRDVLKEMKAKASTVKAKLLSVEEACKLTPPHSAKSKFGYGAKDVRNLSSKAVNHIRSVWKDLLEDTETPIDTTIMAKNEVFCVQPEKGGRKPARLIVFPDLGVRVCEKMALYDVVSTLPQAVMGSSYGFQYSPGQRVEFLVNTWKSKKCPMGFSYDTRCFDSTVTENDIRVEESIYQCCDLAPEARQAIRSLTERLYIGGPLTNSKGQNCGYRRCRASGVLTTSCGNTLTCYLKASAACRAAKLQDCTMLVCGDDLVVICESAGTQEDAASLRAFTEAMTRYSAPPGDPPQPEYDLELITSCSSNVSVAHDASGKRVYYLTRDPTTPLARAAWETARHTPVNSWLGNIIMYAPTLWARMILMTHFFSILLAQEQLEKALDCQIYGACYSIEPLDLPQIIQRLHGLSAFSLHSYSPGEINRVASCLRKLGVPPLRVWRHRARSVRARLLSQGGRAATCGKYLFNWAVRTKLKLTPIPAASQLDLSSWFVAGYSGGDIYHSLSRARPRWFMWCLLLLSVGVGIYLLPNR

[9] = molecular target: RNA-directed RNA polymerase (Hepacivirus hominis) (UniProt O39930); assay: Inhibition of NS5B polymerase in HCV genotype 2a infected in human HuH7 replicon cells after 5 days by RT-PCR analysis; type: cell-based; conditions: Hepatitis C virus subtype 2a
[10] = molecular target: RNA-directed RNA polymerase (Hepacivirus hominis) (UniProt O39930); assay: Inhibition of NS5B polymerase in HCV genotype 1b/5a chimeric replicon infected in human HuH7 replicon cells after 5 days by RT-PCR analysis; type: cell-based
[11] = Drug metabolism in human HuH7 cells assessed as Tmax for NTP formation at 10 uM after 2 to 48 hrs by LC-MS/MS analysis; type: ADME, cell-based; conditions: huh-7, 10 µM
[12] = tested on: cytochrome c oxidase subunit 2 DNA level; assay: Mitochondrial toxicity in human HepG2 cells assessed as inhibition of cytochrome c oxidase subunit 2 DNA level at 50 uM followed by medium plus drugs replenishment every 3 to 4 days for 14 days relative to control; type: cell-based
[13] = tested on: nuclear ribosomal-DNA level; assay: Mitochondrial toxicity in human HepG2 cells assessed as inhibition of nuclear ribosomal-DNA level at 50 uM followed by medium plus drugs replenishment every 3 to 4 days for 14 days relative to control; type: cell-based
[14] = tested on: cytochrome c oxidase subunit 2 DNA level; assay: Mitochondrial toxicity in human HepG2 cells assessed as inhibition of cytochrome c oxidase subunit 2 DNA level followed by medium plus drugs replenishment every 3 to 4 days for 14 days relative to control; type: cell-based
Bone marrow cell [15] = assay: Cytotoxicity against human bone marrow cells assessed as inhibition of burst forming unit-erythroid after 14 days by FACS analysis; type: cell-based; conditions: 336 h
Bone marrow cell [16] = assay: Cytotoxicity against human bone marrow cells assessed as inhibition of colony-forming unit-granulocyte after 14 days by FACS analysis; type: cell-based; conditions: 336 h
[17] = Cardiotoxicity against human embryonic stem cell-induced ventricular cardiomyocytes administered on day 7 and measured on day 10 after 30 mins incubation by CellTiter Glo assay; type: toxicity, cell-based, Cardiac muscle cell
[18] = Half life in human intestinal microsomes by LC/MS/MS analysis; type: ADME, Intestine, Microsome
[19] = Stability in human plasma assessed as compound remaining at 2 uM after 120 mins by LC/MS/MS analysis; type: ADME, cell-free; conditions: read-out: Stability
[20] = Stability in simulated intestinal fluid after 24 hrs by LC/MS/MS analysis; type: ADME; conditions: simulated gi fluid
[21] = molecular target: RNA-directed RNA polymerase (Hepacivirus hominis) (UniProt O39930); conditions: genotype 1b/3a
[22] = molecular target: RNA-directed RNA polymerase (Hepacivirus hominis) (UniProt O39930); conditions: Hepatitis C virus subtype 1b
[23] = tested on: nuclear ribosomal-DNA level; assay: in vitro; conditions: human, HepG2 cells
in vitro [24] = conditions: human, liver microsomes
in vitro [25] = conditions: human, liver microsomes; remark: listed apart in the source
in vitro [26] = conditions: human, liver microsomes; remark: listed apart in the source
in vitro [27] = conditions: human, liver microsomes; remark: listed apart in the source
[28] = Drug uptake in Beagle dog liver at 10 mg/kg, po measured up to 4 hrs by LC-MS/MS analysis; conditions: in vivo, BLD = below limit of detection
[29] = Drug metabolism in Beagle dog liver assessed as formation of triphosphate form parent nucleoside at 10 mg/kg, po measured up to 4 hrs by LC-MS/MS analysis; conditions: in vivo
Vero = type: cell-based; conditions: chlorocebus sabaeus, 72 h
Huh-7 = assay: Cytotoxicity against human HuH7 cells assessed reduction in cell viability after 3 to 5 days by cellular ribosomal RNA amplification assay
[30] = molecular target: T1, DNA polymerase alpha catalytic subunit (Homo sapiens, UniProt P09884); assay: Inhibition of human DNA polymerase alpha using 5-end radiolabeled 24nt to 48nt DNA as primer template after 5 mins in presence of dCTP/dGTP/dTTP/dATP by PAGE analysis
T1 sequence (P09884 whole entry): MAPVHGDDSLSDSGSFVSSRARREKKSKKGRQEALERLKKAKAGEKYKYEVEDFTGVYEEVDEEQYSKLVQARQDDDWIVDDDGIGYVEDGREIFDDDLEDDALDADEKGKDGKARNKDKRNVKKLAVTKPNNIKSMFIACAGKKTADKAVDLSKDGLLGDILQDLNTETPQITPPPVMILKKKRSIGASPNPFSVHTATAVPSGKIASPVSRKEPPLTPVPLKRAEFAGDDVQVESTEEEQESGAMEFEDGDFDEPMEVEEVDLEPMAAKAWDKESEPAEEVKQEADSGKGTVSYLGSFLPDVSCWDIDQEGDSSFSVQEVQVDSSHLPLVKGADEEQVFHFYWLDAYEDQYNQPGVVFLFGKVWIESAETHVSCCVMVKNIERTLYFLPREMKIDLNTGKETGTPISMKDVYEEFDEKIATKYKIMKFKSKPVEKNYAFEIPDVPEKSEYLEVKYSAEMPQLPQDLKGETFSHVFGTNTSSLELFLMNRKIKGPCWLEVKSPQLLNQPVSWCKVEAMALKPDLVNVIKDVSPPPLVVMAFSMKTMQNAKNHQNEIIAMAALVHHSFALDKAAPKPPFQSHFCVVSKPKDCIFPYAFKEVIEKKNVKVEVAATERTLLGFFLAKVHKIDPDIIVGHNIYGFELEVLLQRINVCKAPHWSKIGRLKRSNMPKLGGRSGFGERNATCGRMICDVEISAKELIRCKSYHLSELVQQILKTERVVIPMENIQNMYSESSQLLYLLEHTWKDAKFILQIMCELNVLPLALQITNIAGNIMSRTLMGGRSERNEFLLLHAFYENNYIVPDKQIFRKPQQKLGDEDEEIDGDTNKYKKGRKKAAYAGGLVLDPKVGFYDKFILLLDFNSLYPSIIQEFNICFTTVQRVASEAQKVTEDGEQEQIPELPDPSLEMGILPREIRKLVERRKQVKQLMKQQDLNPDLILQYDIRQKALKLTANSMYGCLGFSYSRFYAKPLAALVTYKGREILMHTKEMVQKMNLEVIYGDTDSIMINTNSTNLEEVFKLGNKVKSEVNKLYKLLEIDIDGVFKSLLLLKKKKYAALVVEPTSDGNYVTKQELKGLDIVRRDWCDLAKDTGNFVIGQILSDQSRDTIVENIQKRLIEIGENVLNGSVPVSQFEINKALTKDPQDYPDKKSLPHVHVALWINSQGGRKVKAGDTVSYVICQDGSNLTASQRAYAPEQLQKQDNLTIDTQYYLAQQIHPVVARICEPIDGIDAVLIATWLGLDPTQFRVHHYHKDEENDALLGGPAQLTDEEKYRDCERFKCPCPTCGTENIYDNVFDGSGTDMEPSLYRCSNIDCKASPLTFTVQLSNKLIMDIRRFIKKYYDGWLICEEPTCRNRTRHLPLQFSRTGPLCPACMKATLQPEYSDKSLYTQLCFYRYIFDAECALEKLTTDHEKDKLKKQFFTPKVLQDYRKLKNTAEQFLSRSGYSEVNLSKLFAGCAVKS

DNA polymerase beta = DNA polymerase beta (Homo sapiens, UniProt P06746); assay: Inhibition of human DNA polymerase beta using 5-end radiolabeled 24nt to 48nt DNA as primer template after 5 mins in presence of dCTP/dGTP/dTTP/dATP by PAGE analysis
[31] = Inhibition of human DNA polymerase gamma using 5-end radiolabeled 24nt to 48nt DNA as primer template after 120 mins in presence of dCTP/dGTP/dTTP/dATP by PAGE analysis
[32] = Stability in Beagle dog plasma assessed as compound remaining at 2 uM up to 2 hrs by LC-MS/MS analysis; type: ADME, cell-free, Canis lupus familiaris; conditions: read-out: Stability
[33] = Stability in Sprague-Dawley rat plasma assessed as compound remaining at 2 uM after 2 hrs by LC-MS/MS analysis; type: ADME, cell-free; conditions: read-out: Stability

SMILES: O=c1ccn([C@@H]2O[C@H](COP(=O)(O)OP(=O)(O)OP(=O)(O)O)[C@@H](O)[C@H]2O)c(=O)[nH]1 [URIDINE TRIPHOSPHATE]
Activity [1]: 100%

SMILES: CC(C)OC(=O)[C@H](C)NP(=O)(OC[C@H]1O[C@@H](n2cnc3c(N)ncnc32)[C@](F)(Br)[C@H]1O)Oc1ccccc1 (stereo partly drawn)
CC50 [2]: > 10 µM
CC50 at 120 h [3]: > 100 µM
CC50 at 96 h [4]: > 100 µM

Activity [1]: 9.8%
SMILES: C[C@@]1(O)[C@H](O)[C@@H](COP(=O)(O)OP(=O)(O)OP(=O)(O)O)O[C@H]1n1ccc(=O)[nH]c1=O

SMILES: CC(C)OC(=O)[C@H](C)N[P@@](=O)(OC[C@H]1O[C@@H](n2ccc(=O)[nH]c2=O)C(F)(Br)C1O)Oc1ccccc1 (single isomer, unassigned)
IC50 at 14 days [5]: > 100 µM
IC50 at 3 days [6]: > 100 µM
IC50 at 3 days [7]: > 100 µM
Activity (HepG2): 100%
EC90 [8]: 0.87 µM
EC90 [9]: 0.83 µM
CC50 [2]: > 10 µM
CC50 at 120 h [3]: > 100 µM
CC50 at 96 h [4]: > 100 µM
EC90 [10]: 0.8 µM
Tmax [11]: 24 h
inhibition at 336 h, 50 µM [12]: 31%
inhibition at 336 h, 50 µM [13]: < 1%
IC50 at 14 days [14]: > 50 µM
IC50 (Bone marrow cell [15]): > 100 µM
IC50 (Bone marrow cell [16]): > 100 µM
IC50 at 3 days [17]: > 100 µM
half-life [18]: 2.2 h
remaining at 2 h, 2 µM [19]: 72%
Stability [20]: Stable
EC90 [21]: 1.6 µM
EC90 [22]: 0.53 to 2.4 µM
IC50 at 14 days [23]: > 50 µM
half-life (in vitro [24]): 0.307 h
microsomal CLint (in vitro [25]): 75.3 µL/min/mg
remaining at 1 h (in vitro [26]): 26.6%
CLint scaled (in vitro [27]): 67.8 mL/min/kg
Drug uptake [28]: Bld
Drug metabolism [29]: Metabolite_Notdetected

EC90 [22]: > 10 µM
SMILES: Nc1nc2c(ncn2[C@@H]2O[C@H](CO)[C@@H](O)[C@]2(F)Br)c(=O)[nH]1
CC50 at 96 h [4]: > 100 µM
CC50 (Vero): > 100 µM
CC50 (Huh-7): > 10 µM

EC90 [22]: > 10 µM
SMILES: Nc1ncnc2c1ncn2[C@@H]1O[C@H](CO)C(O)C1(F)Br (single isomer, unassigned)
CC50 at 96 h [4]: > 100 µM
CC50 (Vero): > 100 µM
CC50 (Huh-7): > 10 µM

SMILES: CC(C)OC(=O)[C@H](C)NP(=O)(OC[C@H]1O[C@@H](n2ccc(N)nc2=O)C(F)(Br)C1O)Oc1ccccc1 (single isomer, unassigned)
CC50 at 96 h [4]: > 100 µM
CC50 (Vero): > 100 µM
EC90 [22]: 1.8 µM
CC50 (Huh-7): > 10 µM

SMILES: C[C@@]1(F)[C@H](O)[C@@H](COP(=O)(O)OP(=O)(O)OP(=O)(O)O)O[C@H]1n1ccc(=O)[nH]c1=O [GS-461203]
Activity [1]: 3.1%
IC50 [30]: > 100 µM
IC50 (DNA polymerase beta): > 100 µM
IC50 [31]: > 100 µM

SMILES: CC(C)OC(=O)[C@H](C)NP(=O)(OC[C@H]1O[C@@H](n2ccc(=O)[nH]c2=O)[C@](F)(Br)[C@H]1O)Oc1ccccc1 (mixture of isomers)
Activity (HepG2): 140%
CC50 at 120 h [3]: > 100 µM
CC50 at 96 h [4]: > 100 µM
inhibition at 336 h, 50 µM [12]: 39%
inhibition at 336 h, 50 µM [13]: 40%
IC50 at 14 days [14]: > 50 µM
remaining at 2 h, 2 µM [32]: 100%
remaining at 2 h, 2 µM [33]: 0.2%
EC90 [22]: 0.9 µM
IC50 at 14 days [23]: > 50 µM
CC50 (Huh-7): > 10 µM

SMILES: CC(C)OC(=O)[C@H](C)NP(=O)(OC[C@H]1O[C@@H](n2cnc3c(=O)[nH]c(N)nc32)[C@](F)(Br)[C@H]1O)Oc1ccccc1 (stereo partly drawn)
CC50 at 96 h [4]: > 100 µM
EC90 [22]: 1.8 µM

EC90 [22]: 9.5 µM
SMILES: Nc1ccn([C@@H]2O[C@H](CO)[C@@H](O)[C@]2(F)Br)c(=O)n1
CC50 at 96 h [4]: > 100 µM
CC50 (Vero): > 100 µM
CC50 (Huh-7): > 10 µM

SMILES: O=C(O)Cc1ccccc1Nc1c(Cl)cccc1Cl [DICLOFENAC]
CLint scaled (in vitro [27]): 116 mL/min/kg
